Numbers after ± are expanded uncertainties.
Test: activity coefficient (dimensionless); of the first substance listed, at infinite dilution; xn = mol fraction of the nth substance listed
Conditions: 101.33 kPa, Liquid, Chromatography, x1 = 0

Row | Compound | activity coefficient (318.15 K) | activity coefficient (328.15 K) | activity coefficient (338.15 K) | activity coefficient (348.15 K) | activity coefficient (358.15 K) | activity coefficient (368.15 K) | activity coefficient (308.15 K) | activity coefficient (298.15 K)
1 | Cc1ccccc1C [1,2-dimethylbenzene] + C[N+]1(CCCO)CCOCC1.N#C[N-]C#N | 18.2 ± 1.2 | 18.6 ± 1.3 | 18.8 ± 1.3 | 19 ± 1.3 | 19.2 ± 1.3 | 19.5 ± 1.3 | – | –
2 | Cc1ccccc1C [1,2-dimethylbenzene] + C[n+]1ccn(CCCO)c1.N#CN=C=[N-] | 10.9 ± 0.7 | 11.3 ± 0.8 | 11.7 ± 0.8 | 12 ± 0.8 | 12.5 ± 0.9 | 12.8 ± 0.9 | – | –
3 | Cc1cccc(C)c1 [1,3-dimethylbenzene] + C[N+]1(CCCO)CCOCC1.N#C[N-]C#N | 24.1 ± 1.6 | 24.1 ± 1.6 | 24.2 ± 1.7 | 24.3 ± 1.7 | 24.3 ± 1.7 | 24.5 ± 1.7 | – | –
4 | Cc1cccc(C)c1 [1,3-dimethylbenzene] + C[n+]1ccn(CCCO)c1.N#CN=C=[N-] | 14.1 ± 1 | 14.5 ± 1 | 14.9 ± 1 | 15.2 ± 1 | 15.6 ± 1.1 | 16 ± 1.1 | – | –
5 | Cc1ccc(C)cc1 [1,4-dimethylbenzene] + C[N+]1(CCCO)CCOCC1.N#C[N-]C#N | 23.2 ± 1.6 | 23.3 ± 1.6 | 23.5 ± 1.6 | 23.7 ± 1.6 | 23.8 ± 1.6 | 24.1 ± 1.6 | – | –
6 | Cc1ccc(C)cc1 [1,4-dimethylbenzene] + C[n+]1ccn(CCCO)c1.N#CN=C=[N-] | 13.5 ± 0.9 | 13.9 ± 1 | 14.3 ± 1 | 14.7 ± 1 | 15.1 ± 1 | 15.5 ± 1.1 | – | –
7 | C1COCCO1 [1,4-dioxane] + C[N+]1(CCCO)CCOCC1.N#C[N-]C#N | 1.94 ± 0.13 | 2.07 ± 0.14 | 2.2 ± 0.15 | 2.33 ± 0.16 | 2.45 ± 0.17 | 2.59 ± 0.18 | – | –
8 | C1COCCO1 [1,4-dioxane] + C[n+]1ccn(CCCO)c1.N#CN=C=[N-] | 1.73 ± 0.12 | 1.85 ± 0.12 | 1.98 ± 0.13 | 2.09 ± 0.14 | 2.23 ± 0.15 | 2.34 ± 0.16 | – | –
9 | C=CCCCCCCCC [1-decene] + C[N+]1(CCCO)CCOCC1.N#C[N-]C#N | 1460 ± 100 | 1300 ± 89 | 1160 ± 80 | 1050 ± 72 | 952 ± 66 | 875 ± 60 | 1640 ± 110 | –
10 | C=CCCCCCCCC [1-decene] + C[n+]1ccn(CCCO)c1.N#CN=C=[N-] | 764 ± 53 | 710 ± 49 | 662 ± 46 | 627 ± 43 | 590 ± 41 | – | 819 ± 56 | 879 ± 61
11 | C=CCCCCC [1-heptene] + C[N+]1(CCCO)CCOCC1.N#C[N-]C#N | 519 ± 36 | 425 ± 29 | 359 ± 25 | – | – | – | 634 ± 44 | 793 ± 55
12 | C=CCCCCC [1-heptene] + C[n+]1ccn(CCCO)c1.N#CN=C=[N-] | 176 ± 12 | 166 ± 11 | 156 ± 11 | 146 ± 10 | 139 ± 10 | – | 194 ± 13 | 208 ± 14
13 | C#CCCCCC [1-heptyne] + C[N+]1(CCCO)CCOCC1.N#C[N-]C#N | 79.8 ± 5.5 | 76.7 ± 5.3 | 74 ± 5.1 | 72 ± 4.9 | 69.8 ± 4.8 | 68.1 ± 4.7 | 82.9 ± 5.7 | –
14 | C#CCCCCC [1-heptyne] + C[n+]1ccn(CCCO)c1.N#CN=C=[N-] | 34.6 ± 2.4 | 34.6 ± 2.4 | 35.1 ± 2.4 | 35.3 ± 2.4 | 35.3 ± 2.4 | – | 34.3 ± 2.3 | 34 ± 2.3
